This is an account of results in US10889555B2, “Sulfonamide compound or salt thereof” (Taiho Pharmaceutical Co., Ltd., priority 2016, dated 2021).

The subject of the assay is HCC 1806 cells. Briefly: Cell proliferation inhibitory effect on human breast cancer cell line (crystal violet, 72 hours). The following applies: Homo sapiens, HCC1806, 72 h, read-out: Cell growth suppression IC50. Format: cell-based. Put shortly: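 Cells were seeded at 2,000/well in RPMI-1640 with 10% FBS and grown 1 day, then exposed to compound for 72 h at 37° C, 5% CO2. After glutaraldehyde fixation and 0.05% crystal violet staining, extracted dye was read at 540 nm. IC50 (μM) came from growth inhibition relative to untreated and cell-free wells.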
The term IC50 denotes the concentration that inhibits the measured activity by half. For `Cc1c(Cl)ccc(F)c1[C@@H](C)[C@H](NS(=O)(=O)c1ccc(Cl)c2c1OCCN2C)c1n[nH]c(=O)o1` [Example 289, 5-chloro-N-((1S,2R)-2-(3-chloro-6-fluoro-2-methylphenyl)-1-(5-oxo-4,5-dihydro-1,3,4-oxadiazol-2-yl)propyl)-4-methyl-3,4-dihydro-2H-benzo[b][1,4]oxazine-8-sulfonamide], the IC50 is 0.6 µM.
Turning to `COc1c(S(=O)(=O)N[C@H](c2n[nH]c(=O)o2)[C@H](C)c2c(F)ccc(C)c2C)ccc(Cl)c1C(C)=O` [Example 294, 3-acetyl-4-chloro-N-((1S,2R)-2-(6-fluoro-2,3-dimethylphenyl)-1-(5-oxo-4,5-dihydro-1,3,4-oxadiazol-2-yl)propyl)-2-methoxybenzenesulfonamide], the IC50 was 0.39 µM.
The figure for `COc1cc(Cl)ccc1S(=O)(=O)N[C@H](c1n[nH]c(=O)o1)[C@H](C)c1c(F)ccc(-c2cn[nH]c2)c1C` [Example 303, 4-chloro-N-((1S,2R)-2-(6-fluoro-2-methyl-3-(1H-pyrazol-4-yl)phenyl)-1-(5-oxo-4,5-dihydro-1,3,4-oxadiazol-2-yl)propyl)-2-methoxybenzenesulfonamide] is 0.99 µM.
The figure for `COc1cc(Cl)ccc1S(=O)(=O)N[C@H](c1n[nH]c(=O)o1)[C@H](C)c1c(F)ccc(-c2cnn(C(F)F)c2)c1C` [Example 304, 4-chloro-N-((1S,2R)-2-(3-(1-(difluoromethyl)-1H-pyrazol-4-yl)-6-fluoro-2-methylphenyl)-1-(5-oxo-4,5-dihydro-1,3,4-oxadiazol-2-yl)propyl)-2-methoxybenzenesulfonamide] is 0.94 µM; for `COc1cc(Cl)ccc1S(=O)(=O)N[C@H](c1n[nH]c(=O)o1)[C@H](C)c1c(F)ccc(-c2c[nH]nc2C)c1C` [Example 308, 4-chloro-N-((1S,2R)-2-(6-fluoro-2-methyl-3-(3-methyl-1H-pyrazol-4-yl)phenyl)-1-(5-oxo-4,5-dihydro-1,3,4-oxadiazol-2-yl)propyl)-2-methoxybenzenesulfonamide] it is 0.87 µM; for `CCn1cc(-c2ccc(F)c([C@@H](C)[C@H](NS(=O)(=O)c3ccc(Cl)cc3OC)c3n[nH]c(=O)o3)c2C)cn1` [Example 310, 4-chloro-N-((1S,2R)-2-(3-(1-ethyl-1H-pyrazol-4-yl)-6-fluoro-2-methylphenyl)-1-(5-oxo-4,5-dihydro-1,3,4-oxadiazol-2-yl)propyl)-2-methoxybenzenesulfonamide] it is 0.35 µM.
As for `COc1cc(Cl)ccc1S(=O)(=O)N[C@H](c1n[nH]c(=O)o1)[C@H](C)c1c(F)ccc(-c2cnn(C3CC3)c2)c1C` [Example 311, 4-chloro-N-((1S,2R)-2-(3-(1-cyclopropyl-1H-pyrazol-4-yl)-6-fluoro-2-methylphenyl)-1-(5-oxo-4,5-dihydro-1,3,4-oxadiazol-2-yl)propyl)-2-methoxybenzenesulfonamide], the figure is 0.52 µM.
On to `COc1cc(Cl)ccc1S(=O)(=O)N[C@H](c1n[nH]c(=O)o1)[C@H](C)c1c(F)ccc(-c2cnn(C3CCC3)c2)c1C` [Example 312, 4-chloro-N-((1S,2R)-2-(3-(1-cyclobutyl-1H-pyrazol-4-yl)-6-fluoro-2-methylphenyl)-1-(5-oxo-4,5-dihydro-1,3,4-oxadiazol-2-yl)propyl)-2-methoxybenzenesulfonamide], for which the IC50 was determined as 0.87 µM.
As for `COc1cc(Cl)ccc1S(=O)(=O)N[C@H](c1n[nH]c(=O)o1)[C@H](C)c1c(F)ccc(-c2ccc(N3CCOCC3)nc2)c1C` [Example 315, 4-chloro-N-((1S,2R)-2-(6-fluoro-2-methyl-3-(6-morpholinopyridin-3-yl)phenyl)-1-(5-oxo-4,5-dihydro-1,3,4-oxadiazol-2-yl)propyl)-2-methoxybenzenesulfonamide], the figure is 0.93 µM.
The figure for `Cc1c(Br)ccc(F)c1[C@@H](C)[C@H](NS(=O)(=O)c1ccc(Cl)c2c1OCCC2(C)N)c1n[nH]c(=O)o1` (stereo partly drawn) [Example 329, 4-amino-N-((1S,2R)-2-(3-bromo-6-fluoro-2-methylphenyl)-1-(5-oxo-4,5-dihydro-1,3,4-oxadiazol-2-yl)propyl)-5-chloro-4-methyl-chroman-8-sulfonamide] is 0.24 µM.
